# Test system: GM1 production in Jurkat cells
# Experiment: cells
# Assay type: cell-based
# Details: Homo sapiens, Jurkat, 72 h
row,SMILES,IC50
1,"CCOc1ccc(C)cc1-c1ccc2c(c1)CC(C)(C)C2NC(=O)O[C@@H]1CN2CCC1CC2 (stereo partly drawn) [Example 198, (S)-quinuclidin-3-yl (5-(2-ethoxy-5-methylphenyl)-2,2-dimethyl-2,3-dihydro-1H-inden-1-yl)carbamate]",11.7 nM
2,"CCCOc1cccc(-c2ccc3c(c2)CC(C)(C)C3NC(=O)O[C@@H]2CN3CCC2CC3)c1 (stereo partly drawn) [Example 199, (S)-quinuclidin-3-yl (2,2-dimethyl-5-(3-propoxyphenyl)-2,3-dihydro-1H-inden-1-yl)carbamate]",5.5 nM
3,"COc1ccc(C)cc1-c1ccc2c(c1)CC(C)(C)C2NC(=O)O[C@@H]1CN2CCC1CC2 (stereo partly drawn) [Example 200, (S)-quinuclidin-3-yl (5-(2-methoxy-5-methylphenyl)-2,2-dimethyl-2,3-dihydro-1H-inden-1-yl)carbamate]",3.7 nM
4,"CCCCOc1ccc(F)cc1-c1ccc2c(c1)CC(C)(C)C2NC(=O)O[C@@H]1CN2CCC1CC2 (stereo partly drawn) [Example 201, (S)-quinuclidin-3-yl (5-(2-butoxy-5-fluorophenyl)-2,2-dimethyl-2,3-dihydro-1H-inden-1-yl)carbamate]",38.2 nM
5,"CCCCOc1ccc(-c2ccc3c(c2)CC(C)(C)C3NC(=O)O[C@@H]2CN3CCC2CC3)cc1Cl (stereo partly drawn) [Example 202, (S)-quinuclidin-3-yl (5-(4-butoxy-3-chlorophenyl)-2,2-dimethyl-2,3-dihydro-1H-inden-1-yl)carbamate]",26.3 nM
6,"CCCOc1ccc(-c2ccc3c(c2)CC(C)(C)C3NC(=O)O[C@@H]2CN3CCC2CC3)c(OCCC)c1 (stereo partly drawn) [Example 203, (S)-quinuclidin-3-yl (5-(2,4-dipropoxyphenyl)-2,2-dimethyl-2,3-dihydro-1H-inden-1-yl)carbamate]",8.2 nM
7,"CCOc1ccc(-c2ccc3c(c2)CC(C)(C)C3NC(=O)O[C@@H]2CN3CCC2CC3)cc1Cl (stereo partly drawn) [Example 204, (S)-quinuclidin-3-yl (5-(3-chloro-4-ethoxyphenyl)-2,2-dimethyl-2,3-dihydro-1H-inden-1-yl)carbamate]",57.2 nM
8,"CC(C)COc1cccc(-c2ccc3c(c2)CC(C)(C)C3NC(=O)O[C@@H]2CN3CCC2CC3)c1 (stereo partly drawn) [Example 205, (S)-quinuclidin-3-yl (5-(3-isobutoxyphenyl)-2,2-dimethyl-2,3-dihydro-1H-inden-1-yl)carbamate]",7.6 nM
9,"CCOc1ccc(-c2ccc3c(c2)CC(C)(C)C3NC(=O)O[C@@H]2CN3CCC2CC3)c(C)c1 (stereo partly drawn) [Example 206, (S)-quinuclidin-3-yl (5-(4-ethoxy-2-methylphenyl)-2,2-dimethyl-2,3-dihydro-1H-inden-1-yl)carbamate]",14 nM
10,"CCCOc1ccc(-c2ccc3c(c2)CC(C)(C)C3NC(=O)O[C@@H]2CN3CCC2CC3)cc1Cl (stereo partly drawn) [Example 207, (S)-quinuclidin-3-yl (5-(3-chloro-4-propoxyphenyl)-2,2-dimethyl-2,3-dihydro-1H-inden-1-yl)carbamate]",58.6 nM
11,"CC(C)Oc1ccc(F)cc1-c1ccc2c(c1)CC(C)(C)C2NC(=O)O[C@@H]1CN2CCC1CC2 (stereo partly drawn) [Example 208, (S)-quinuclidin-3-yl (5-(5-fluoro-2-isopropoxyphenyl)-2,2-dimethyl-2,3-dihydro-1H-inden-1-yl)carbamate]",67.4 nM
12,"CC(C)Oc1ccc(-c2ccc3c(c2)CC(C)(C)C3NC(=O)O[C@@H]2CN3CCC2CC3)cc1F (stereo partly drawn) [Example 209, (S)-quinuclidin-3-yl (5-(3-fluoro-4-isopropoxyphenyl)-2,2-dimethyl-2,3-dihydro-1H-inden-1-yl)carbamate]",32.1 nM
13,"COc1ccc(Cl)cc1-c1ccc2c(c1)CC(C)(C)C2NC(=O)O[C@@H]1CN2CCC1CC2 (stereo partly drawn) [Example 210, (S)-quinuclidin-3-yl (5-(5-chloro-2-methoxyphenyl)-2,2-dimethyl-2,3-dihydro-1H-inden-1-yl)carbamate]",7.5 nM
14,"Cc1ccc(F)c(-c2ccc3c(c2)CC(C)(C)C3NC(=O)O[C@@H]2CN3CCC2CC3)c1 (stereo partly drawn) [Example 211, (S)-quinuclidin-3-yl (5-(2-fluoro-5-methylphenyl)-2,2-dimethyl-2,3-dihydro-1H-inden-1-yl)carbamate]",13.2 nM
